Measurements reported in US12582614B2, “Composition for preventing, alleviating or treating sarcopenia, containing D-ribo-2-hexulose as active ingredient” (KYUNGPOOK NATIONAL UNIVERSITY INDUSTRY-ACADEMIC COOPERATION …, priority 2021, dated 2026).

Legend:
[1] = system: Akt, AMPK, PI3K, mTOR, PGC1-α, and phosphorylated variants thereof; experiment: Western blotting of protein levels of muscle enhancement factors; type: in vivo, C57BL/6J male mice; conditions: DRH group vs NC group
Method: The amount of cytoplasmic and membrane proteins was quantified according to the Bradford method. Thereafter, a protein load was applied onto a 10% SDS-polyacrylamide gel, transferred to a Tris-glycine electrophoresis buffer for an hour, and then electrophoresed. The positions of the bands were confirmed using a Ponceau solution, blocking (5% skim milk in TBS/0.1% Tween-20) was performed at room temperature for 60 minutes in order to reduce non-specific reactions to the membrane. Then, the samples were reacted with a primary antibody overnight at 4° C.
Each of the antibodies was reacted with 5% skim milk diluted in the following ratios: Rabbit anti-mouse PGC1-α (1:1,000; Santa Cruz, USA), rabbit anti-mouse α-tubulin (1:1,000; Cell Signaling Technology, USA), rabbit anti-mouse p-Akt (1:1,000; Cell Signaling Technology, USA), rabbit anti-mouse Akt (1:1,000; Cell Signaling Technology, USA), rabbit anti-mouse p-PI3K (1:1,000; Cell Signaling Technology, USA), rabbit anti-mouse PI3K (1:1,000; Cell Signaling Technology), rabbit anti-mouse mTOR (1:1,000; Cell Signaling Technology, USA), rabbit anti-mouse TNF-α (1:1,000; Cell Signaling Technology, USA), rabbit anti-mouse adiponectin (1:1,000; Cell Signaling Technology, USA), rabbit anti-mouse haptoglobin (1:1,000; Abcam, USA), rabbit anti-mouse SCD1 (1:1,000; Cell Signaling Technology, USA), goat anti-mouse CerS1 (1:1,000; Novus Biologicals Ltd., USA), and rabbit anti-mouse NF-κB (1:000; Cell Signaling Technology, USA). The protein bands were washed, and the membrane was then reacted with a primary antibody in a TBST buffer (25 mM Tris-base, 155 mM NaCl, 0.1% Tween-20) in the presence of anti-rabbit IgG (1:1,000; Amersham Ltd., UK) or anti-goat IgG (1:1,000; ABcam Inc., USA) secondary antibodies for 30 minutes, and reacted at room temperature for an hour. Then, the membrane was washed again with a TBST buffer for 30 minutes. Immunoreactive bands were developed on a film using an ECL kit (Pierce Chemical Co., IL) to check the bands in a final state.

[2] = Muscle and liver glycogen and fasting blood glucose; type: in vivo, C57BL/6J male mice
Method: Specifically, a negative control group (NC, n=7, American Institute of Nutrition AIN-93G Semisynthetic diet); a D-ribo-2-hexulose-treated group (D-ribo-2-hexulose; DRH, n=7; a portion of cellulose in AIN-93G was replaced with 3% D-ribo-2-hexulose). […] The dose of D-ribo-2-hexulose was set at 3% based on previous animal studies. In the previous studies, the dose of D-ribo-2-hexulose was determined to be 3% in order to investigate a biological effect at a lower dose than the dose. During the experiment, the mice had free access to distilled water, and the food intakes and body weights of the mice were measured weekly, and blood glucose was measured once every 4 weeks. All animal experiments were approved by the Animal Research Ethics Committee of KyungPook National University (Approval Number: KNU-2020-109).

With `O=C(CO)[C@H](O)[C@H](O)[C@H](O)CO` [DRH, D-ribo-2-hexulose] the “protein level of AMPK and phosphorylated variant” value [1] was “significantly increased”, the “protein level of Akt and phosphorylated variant” value [1] was “significantly increased” and the “protein level of PGC1-α” value [1] was “significantly increased”. For the same compound, the “protein level of PI3K and phosphorylated variant” value [1] was “significantly increased”, the “protein level of mTOR and phosphorylated variant” value [1] was “significantly increased” and the “fasting blood glucose level” value ([2]; at 12 weeks, DRH group vs NC group) was “significantly decreased”. The liver glycogen content ([2]; between the groups) was “not significantly different” and the muscle glycogen content ([2]; quadriceps, between the groups) was “not significantly different”.
